The source of these data is article PMC9596378, “Discovery and molecular basis of subtype-selective cyclophilin inhibitors” (Nature Chemical Biology, 2022).

pIC50: −log10 of the molar value. Several values for one entry are separate records, joined by “and”; a condition that tells them apart may be missing. Identical values can stand only once. Entries after “also recorded” stand apart in the source; their conditions may differ. Some results are limits rather than exact numbers.

One data set deals with CypD (Homo sapiens, UniProt P30405). The data set is described as follows: Chymotrypsin coupled prolyl-isomerase assay. To be noted: read-out: Wild-Type Cyclophilin Prolyl Isomerase Inhibition IC50 Values, CypD; wild-type CypD.
CypD, sequence (P30405 45-207): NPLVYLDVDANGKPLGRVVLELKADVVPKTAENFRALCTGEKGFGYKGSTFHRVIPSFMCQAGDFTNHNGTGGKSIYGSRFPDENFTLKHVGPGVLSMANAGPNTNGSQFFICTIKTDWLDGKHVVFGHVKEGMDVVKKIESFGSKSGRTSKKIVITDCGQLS
For data set [1], the system named is HeLa cells. The data set is described as follows: Fluorescence microscopy of Cy5-conjugated compounds. The data set is classed as cell-based, human. How it is done:
Cells were seeded into 96-well, black, clear-bottom, TC-treated plates, in DMEM supplemented with 10% FBS 24 h prior at a density where wells were ~80% confluent at the time of the experiment. Medium was removed and cells were then stained with 50 µL mixture containing Cy5-labeled compound (6 µM) in Kreb’s ringer solution HEPES buffered pH 7.2 (KRB), for 1 h at 37 °C. Then, 50 µL Hoechst 33342 (8 µM) and Mitotracker Green FM (0.1 µM) in KRB was added directly to wells containing cells and incubated for 15 min at 37 °C. Medium was removed and cells were washed twice with 100 µL KRB. Cells were then kept adherent to the wells in 100 µL KRB for imaging. Fluorescence microscopy was conducted on an Opera Phenix Plus High-Content Screening System, using Alexa 488, Alexa 647, and Hoescht 33342 channels. Images were analyzed using Harmony v.4.9.

The nature of data set [2]: In vitro ester pro-drug stability, buffer only. In kind it is in vitro ADME. As to conditions: 8 h, 6 µM, pH 7.4. Here is the method: (§1) In PCR tubes, ester compound (6 µM) and either buffer only, CES1 (0.25 µM), or CES2 (0.25 µM) was diluted in 100 mM Tris-HCl buffer, pH 7.4, with a final DMSO concentration of 1%. Samples were maintained on a PCR block at 37 °C for 8 h. After incubation, samples were diluted with 20 µL acetonitrile and analyzed by LC–MS at Harvard’s Center for Mass Spectroscopy. Di-ester, mono-ester, and di-acid abundances were quantified by total ion count of the primary isotope and the three compounds were summed and each one expressed as a fraction of the total sum.

The next data set deals with T1, CES1 (Homo sapiens, UniProt P23141).
T1 construct: purchased R&D Systems
T1 sequence (P23141 18-567): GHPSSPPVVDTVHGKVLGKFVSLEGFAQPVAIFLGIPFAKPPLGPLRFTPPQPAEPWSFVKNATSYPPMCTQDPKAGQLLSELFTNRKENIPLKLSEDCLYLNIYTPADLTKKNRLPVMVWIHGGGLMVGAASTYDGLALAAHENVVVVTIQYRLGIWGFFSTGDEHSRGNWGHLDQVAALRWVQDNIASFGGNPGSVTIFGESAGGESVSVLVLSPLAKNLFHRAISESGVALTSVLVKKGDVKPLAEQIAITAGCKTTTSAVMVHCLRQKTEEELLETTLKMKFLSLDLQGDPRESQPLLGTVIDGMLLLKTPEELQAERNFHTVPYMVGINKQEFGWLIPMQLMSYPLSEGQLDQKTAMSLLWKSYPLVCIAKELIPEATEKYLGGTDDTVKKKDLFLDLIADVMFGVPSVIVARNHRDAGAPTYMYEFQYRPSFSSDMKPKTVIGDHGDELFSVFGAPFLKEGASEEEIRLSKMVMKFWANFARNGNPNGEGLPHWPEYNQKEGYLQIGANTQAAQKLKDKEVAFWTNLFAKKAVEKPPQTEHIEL
The data set is described as follows: In vitro esterase activity on ester pro-drugs. In kind it is in vitro ADME. Details: unit not given here. To be noted: CES1 (9b); three replicate columns. Here is the method: as §1

The next data set deals with T2, CES2 (Homo sapiens, UniProt O00748).
T2 construct: purchased R&D Systems
T2 sequence (O00748 27-559): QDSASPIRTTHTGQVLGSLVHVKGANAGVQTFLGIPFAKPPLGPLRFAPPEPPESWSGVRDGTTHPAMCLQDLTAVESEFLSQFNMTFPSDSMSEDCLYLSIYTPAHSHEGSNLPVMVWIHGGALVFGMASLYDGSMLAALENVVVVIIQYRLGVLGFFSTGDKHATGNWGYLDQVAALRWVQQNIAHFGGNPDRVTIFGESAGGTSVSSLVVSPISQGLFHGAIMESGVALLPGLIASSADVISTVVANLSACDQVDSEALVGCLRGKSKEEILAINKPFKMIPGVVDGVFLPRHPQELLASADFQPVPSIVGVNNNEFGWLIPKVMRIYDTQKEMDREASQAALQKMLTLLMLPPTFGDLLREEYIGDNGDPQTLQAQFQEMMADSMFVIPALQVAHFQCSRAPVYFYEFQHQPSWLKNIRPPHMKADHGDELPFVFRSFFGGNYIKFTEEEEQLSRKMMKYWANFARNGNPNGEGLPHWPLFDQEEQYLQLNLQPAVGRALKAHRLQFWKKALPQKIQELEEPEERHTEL
Description: In vitro esterase activity on ester pro-drugs. As to conditions: CES2 (9c); three replicate columns. Details: unit not given here. The data set is classed as in vitro ADME. How it is done: as §1

The test system of a further data set is A549 cells. Description: Cellular esterase activity on ester pro-drugs. To be noted: for intracellular conversion to di-acid (in words): A549, HeLa, HEK293T, HepG2, MEFs; for Di-ester: A549 intracellular (9d), three replicate columns. The data set is classed as in vitro ADME, human. Details: Di-ester: unit not given here. Here is the method:
(§2) Cells were seeded in 96-well, clear, flat-bottom, TC-treated plates in DMEM supplemented with 10% FBS for HEK293T, HeLa, and MEFs, F-12K supplemented with 10% FBS for A549, or MEM supplemented with 10% FBS for HepG2. Cells were seeded 24 h prior at a density where wells were ~70% confluent at the time of the experiment. Medium was removed and cells were incubated with 100 µL mixture containing each Cy5-conjugated compound (6 µM) in their respective medium at 1% DMSO for 48 h (36 h for HepG2) at 37 °C at 5% CO2. Supernatant was removed, and cells were washed twice with 100 µL PBS pH 7.4 (Gibco). Cells were then lysed for 15 min with 30 µL 10 mM Tris-HCl pH 8.0 buffer containing 0.05% SDS. Lysates were diluted with 100 µL acetonitrile and filtered. Lysates were analyzed by LC–MS at Harvard’s Center for Mass Spectroscopy. Di-ester, mono-ester, and di-acid abundances were quantified by total ion count of the primary isotope, and the three compounds were summed and each one expressed as a fraction of the total sum.

In a further data set the test system is HEK293T cells. Description: Cellular esterase activity on ester pro-drugs. To be noted: HEK293T intracellular (9f); three replicate columns. The data set is classed as in vitro ADME, human. The arrangement: unit not given here. How it is done:
as §2

In data set [3] the test system is HeLa cells. The data set is described as follows: Cellular esterase activity on ester pro-drugs. In kind it is in vitro ADME, human. The arrangement: unit not given here. As to conditions: Hela intracellular (9e); three replicate columns. How it is done: as §2
A further data set deals with MEFs. Description: Cellular esterase activity on ester pro-drugs. In kind it is in vitro ADME, mouse. The arrangement: unit not given here. To be noted: SV40 MEF intracellular (9g); three replicate columns. Here is the method:
as §2

The test system of the next data set is HepG2 cells. Description: Cellular esterase activity on ester pro-drugs. In kind it is in vitro ADME, human. The arrangement: unit: %. As to conditions: HepG2 intracellular (9h); three replicate columns. How it is done:
as §2

As to `CCOC(=O)CC(CC(=O)OCC)c1ccc(-c2ccc(CC3NC(=O)C4(Cc5ccccc5)CCCN(C4)C(=O)C=CC(=O)NCCC(C(=O)NCCNC(=O)CCCCCN4C(=CC=CC=CC5=[N+](C)c6ccccc6C5(C)C)C(C)(C)c5ccccc54)NC(=O)Cc4ccccc4CNC3=O)cc2)cc1` (centres unmarked) [Compound B53-Et-Cy5], on CypD, the pIC50 was below 5.70. Further, the “plasma membrane permeability / mitochondrial localization (in words)” value with HeLa cells [1] is listed as “good mitochondrial localization; also recorded: good plasma membrane permeability”. In data set [2], this molecule yielded a Di-acid of 0. In addition, the Di-ester was 100 in data set [2]; 12 and 10 and 13 on CES1; 21 (2×) and 11 at CES2; 18 and 14 and 21 with A549 cells; 74 (2×) and 72 in the data set on HEK293T cells; 20 and 12 (2×) in the data set on HeLa cells [3]. Also, the Di-ester in the data set on MEFs is 36 and 40 and 39; with HepG2 cells, 67 and 68 (2×). Further, the Mono-ester in data set [2] turned out to be 0. In the data set on A549 cells, the “intracellular conversion to di-acid (in words)” value is listed as “readily converted to the corresponding di-acids intracellularly”.
For `CCOC(=O)C(Cc1ccc(-c2ccc(CC3NC(=O)C4(Cc5ccccc5)CCCN(C4)C(=O)C=CC(=O)NCCC(C(=O)NCCNC(=O)CCCCCN4C(=CC=CC=CC5=[N+](C)c6ccccc6C5(C)C)C(C)(C)c5ccccc54)NC(=O)Cc4ccccc4CNC3=O)cc2)cc1)C(=O)OCC` (centres unmarked) [Compound B52-Et-Cy5], the pIC50 at CypD is below 5.70. The “plasma membrane permeability / mitochondrial localization (in words)” value in the data set on HeLa cells [1] is reported as “good mitochondrial localization; also recorded: good plasma membrane permeability”. In data set [2], this molecule returned a Di-acid of 0. For the same molecule, the Di-ester in [2] was 100; on CES1 it was 13 and 14 and 16; on CES2 it was 30 and 35 and 21; with A549 cells it was 0 (2×) and 1; in the data set with HEK293T cells, 9 and 11 and 8; in the data set on HeLa cells [3], 1. The Di-ester in the data set with MEFs was 8 and 6 and 7; with HepG2 cells it was 45 and 44 and 43. In addition, the Mono-ester in data set [2] turned out to be 0. Moreover, the “intracellular conversion to di-acid (in words)” value in the data set with A549 cells was “readily converted to the corresponding di-acids intracellularly”.
